# PubChem BioAssay (NCI)
#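 96-well plates; 48 h exposure; 5 concentrations. Endpoints by linear interpolation between flanking doses. Not reached: highest tested concentration assigned. The concentration for full growth arrest is given as TGI.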
# Tests used:
# Assay in all cases: DTP human tumour cell line panel, 48 h
# [1] = test system: CAKI-1 renal
# [2] = test system: HOP-92 NSCLC
# [3] = test system: SK-MEL-5 melanoma
# [4] = test system: K-562 leukemia
# [5] = test system: A498 renal
# [6] = test system: UACC-257 melanoma
# [7] = test system: EKVX NSCLC
# [8] = test system: MDA-MB-435
# [9] = test system: MOLT-4 leukemia
# [10] = test system: BT-549 breast
# [11] = test system: ACHN renal
# [12] = test system: CCRF-CEM leukemia
# [13] = test system: NCI-H460 lung
# [14] = test system: OVCAR-5 ovarian
# [15] = test system: UACC-62 melanoma
# [16] = test system: COLO 205 colon
# [17] = test system: OVCAR-8 ovarian
# [18] = test system: SN12C renal
# [19] = test system: U251 CNS
# [20] = test system: MDA-MB-231 breast
Compound,TGI [1] [µM],TGI [2] [µM],TGI [3] [µM],TGI [4] [µM],TGI [5] [µM],TGI [6] [µM],TGI [7] [µM],TGI [8] [µM],TGI [9] [µM],TGI [10] [µM],TGI [11] [µM],TGI [12] [µM],TGI [13] [µM],TGI [14] [µM],TGI [15] [µM],TGI [16] [µM],TGI [17] [µM],TGI [18] [µM],TGI [19] [µM],TGI [20] [µM]
CC(C)(C)OC(=O)C1/C(=C/CO)CN1C(=O)OC(C)(C)C (centres undefined),> 100,> 100,> 100,> 100,> 100,> 100,> 100,> 100,> 100,> 100,> 100,> 100,> 100,> 100,> 100,> 100,> 100,> 100,–,–
O=C1c2c(Br)sc(Br)c2[C@H]2NC(=S)O[C@@H]12,26.7,33.8,29.7,20.7,47.2,31.3,39.5,29.1,5.31,30.3,31.6,–,38.3,35.2,29.2,27.8,24.5,32.7,26.7,32.2
Cn1ncc2c(NCCc3ccccc3)nc(Cl)nc21,91.4,58.4,38.6,> 100,45.5,12.3,23.3,44.9,39.9,78.4,> 100,–,31.1,36.4,45.1,34.2,> 100,> 100,> 100,39.4
Cc1ccc(S(=O)(=O)C2=c3ncccc3=C3C(=O)c4ccccc4C(=O)C32)cc1 (centres undefined),> 100,> 89.5,> 15,> 100,–,> 100,> 100,> 100,> 100,> 88.6,> 95.8,> 100,> 56.9,> 83.9,69.7,> 100,> 100,> 100,> 100,> 100
C=CCSc1nn(CC=C)cc2ncnc1-2,> 100,–,> 100,> 100,> 100,> 100,> 100,> 100,> 100,> 100,> 100,> 100,> 100,> 100,> 100,> 100,> 100,> 100,> 100,> 100
CCOC(=O)Cn1nc2ccc(Nc3nc4ccccc4nc3C(=O)OCC)cc2n1,> 100,> 100,> 100,> 100,> 100,> 100,> 100,> 100,> 100,> 100,> 100,> 100,> 100,> 100,> 100,> 100,> 100,> 100,> 100,–
COc1cc(Cn2c3c(c4cc(O)ccc42)C(=O)c2ccccc2C3=O)cc(OC)c1,55.5,19.7,18.7,–,38.6,> 100,48.2,> 100,90.9,4.86,7.61,–,32.9,32.9,7.64,34.7,19.1,42.2,18.6,23.6
COc1cc2c[n+](C)c3c4ccccc4ccc3c2cc1OC,> 100,–,12.9,21.2,> 65.2,21,> 48.2,15.6,20.6,16.7,> 100,> 100,> 51.2,> 100,18,5.6,16.8,7.95,10.3,14.8
COC(CNC(=O)C(C)NC(=O)C(C)NC(=O)c1ccccc1)OC (centres undefined),> 100,> 100,> 100,> 100,–,> 100,> 100,> 100,> 100,> 100,> 100,> 100,> 100,> 100,> 100,> 100,> 100,> 100,> 100,> 100
CNC(Cc1ccccc1)c1cccc(OC)c1O (centres undefined),> 100,> 100,> 100,> 100,> 100,53.9,> 100,> 100,> 100,> 100,> 100,–,> 100,> 100,> 100,–,> 100,> 100,> 100,> 100
CC(O[Si](C)(C)C(C)(C)C)[C@H](NC(=O)OCC(Cl)(Cl)Cl)C(=O)O (some centres undefined),–,–,> 100,> 100,> 100,> 100,> 100,> 100,> 100,> 100,> 100,> 100,> 100,> 100,> 100,> 100,> 100,> 100,> 100,> 100
Nc1nc(Nc2ccc(Cl)cc2)sc1C(=O)c1cc2ccccc2oc1=O,–,> 100,> 100,> 100,93.7,> 100,–,> 100,–,> 100,> 100,> 100,> 100,> 100,> 100,> 100,–,> 100,> 100,> 100
CC(=O)OC1CC(OC2C(O)CC(OC3C(O)CC(OC4CCC5(C)C(CCC6C5CC(O)C5(C)C(C7=CC(=O)OC7)CCC65O)C4)OC3C)OC2C)OC(C)C1O (centres undefined) (tested in a mixture with another compound),0.0818,0.182,0.0838,0.0685,0.307,0.305,0.0381,0.357,–,0.201,0.0818,> 100,0.0368,0.12,0.128,0.168,0.129,–,0.0801,0.518
